In patent US5510478A, “2-arylamidothiazole derivatives with CNS activity” (American Home Products Corporation, priority 1994, dated 1996):
pIC50: −log10 of the molar value. Read-outs that look alike come from different tables or passages of the source. Values belong to the molecule of their own block, whether it stands above or below them.

Legend:
M1 receptor (rat cortex) = target: T1, M1 receptor (rat cortex) (Rattus norvegicus, UniProt P08482); assay: M1 [3H]pirenzepine binding in rat cortex; conditions: for inhibition at 1 µM: read-out: M1 3H PZ binding in rat cortex at 1 μM, % inhibition
T1 construct: from tissue; host or cells: rat brain cortex
T1 sequence (P08482 1-460): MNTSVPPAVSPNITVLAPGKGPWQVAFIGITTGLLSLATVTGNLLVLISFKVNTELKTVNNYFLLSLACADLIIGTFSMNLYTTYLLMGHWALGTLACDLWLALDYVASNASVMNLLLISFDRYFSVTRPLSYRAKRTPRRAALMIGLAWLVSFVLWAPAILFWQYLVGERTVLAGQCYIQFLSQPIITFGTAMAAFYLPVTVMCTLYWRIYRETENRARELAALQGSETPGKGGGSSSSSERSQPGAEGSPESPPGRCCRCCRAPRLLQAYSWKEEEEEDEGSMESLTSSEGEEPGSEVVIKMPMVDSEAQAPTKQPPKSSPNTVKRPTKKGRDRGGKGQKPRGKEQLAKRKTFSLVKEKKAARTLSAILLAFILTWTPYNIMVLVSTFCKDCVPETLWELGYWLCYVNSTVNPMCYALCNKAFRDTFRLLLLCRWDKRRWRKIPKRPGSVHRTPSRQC

[1] = tested on: Male CFW mice (scopolamine-induced hyperactivity); assay: Reversal of scopolamine-induced hyperactivity in mouse swim tank; type: in vivo; conditions: ip, 5 min, 0.3 mg/kg scopolamine.HBr, swim distance, read-out: minimum effective dose (MED), reversing the hyperactivity of scopolamine treated animals
Method: The compound of Example 1 was also tested in accordance with the procedure of Symons et al, Soc. Neuroscience Abstracts 12:2, 897 (1986) in which Male CFW mice, 25 to 35 grams in weight are given the test compound in suitable vehicle plus 0.3 mg/kg scopoolamine.HBr in suitable vehicle, i.p.(3 groups of 12 animals each) or vehicle alone (1 group of 12 animals ) or vehicle plus scopolamine. HBr (1 group of 12 animals). The rates are placed in a swim tank, individually, containing 10 cm H2 O for a period of 5 minutes and the distance each animal swims is recorded.

[2] = tested on: Sprague-Dawley male rats (scopolamine-disrupted performance); assay: Eight arm radial maze, reversal of scopolamine disrupted rat performance; type: in vivo; conditions: ip, scopolamine HBr 0.3 mg/kg s.c., test compound i.p., read-out: minimum effective dose (MED), reversal of scopolamine disrupted rat performance
Method: The compound of Example 1 was also tested in the eight arm radial maze test procedure in which Sprague-Dawley male rats at 85% of their free feeding weight are trained to obtain two food pellets from food cups placed at the ends of four of the eight arms radiating from a circular central area of the maze, in a five minute period. After training to a level of error (return to a previously entered arm is error) equal to or less than 2, the rats performance is disrupted with scopolamine HBr (0.3 mg/kg, s.c.) and test compound dosage (i.p.). The number of errors are then determined and compared with control receiving scopolamine alone.

[3] = target: T2, M2 receptor (rat cerebellum) (Rattus norvegicus, UniProt P10980); assay: biochemical; conditions: read-out: M2 3H QNB binding in rat cerebellum, IC50
T2 sequence (P10980 1-466): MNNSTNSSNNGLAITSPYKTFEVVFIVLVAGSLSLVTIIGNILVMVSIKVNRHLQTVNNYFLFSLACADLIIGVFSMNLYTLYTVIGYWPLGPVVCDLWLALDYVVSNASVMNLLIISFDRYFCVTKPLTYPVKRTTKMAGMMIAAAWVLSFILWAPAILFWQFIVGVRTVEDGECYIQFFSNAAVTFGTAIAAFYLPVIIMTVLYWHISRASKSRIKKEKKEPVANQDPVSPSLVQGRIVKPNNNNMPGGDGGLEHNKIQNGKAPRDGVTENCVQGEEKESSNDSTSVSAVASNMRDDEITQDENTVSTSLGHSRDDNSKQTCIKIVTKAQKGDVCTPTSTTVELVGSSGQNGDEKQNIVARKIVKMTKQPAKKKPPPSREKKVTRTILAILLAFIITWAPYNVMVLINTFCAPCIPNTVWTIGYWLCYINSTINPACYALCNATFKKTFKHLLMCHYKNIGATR

dopamine D-2 receptor = target: T3, dopamine D-2 receptor (Rattus norvegicus, UniProt P61169); assay: Dopamine D-2 receptor binding, 3H-spiroperidol, limbic brain tissue
T3 construct: from tissue; host or cells: limbic brain tissue (homogenate)
T3 sequence (P61169 whole entry): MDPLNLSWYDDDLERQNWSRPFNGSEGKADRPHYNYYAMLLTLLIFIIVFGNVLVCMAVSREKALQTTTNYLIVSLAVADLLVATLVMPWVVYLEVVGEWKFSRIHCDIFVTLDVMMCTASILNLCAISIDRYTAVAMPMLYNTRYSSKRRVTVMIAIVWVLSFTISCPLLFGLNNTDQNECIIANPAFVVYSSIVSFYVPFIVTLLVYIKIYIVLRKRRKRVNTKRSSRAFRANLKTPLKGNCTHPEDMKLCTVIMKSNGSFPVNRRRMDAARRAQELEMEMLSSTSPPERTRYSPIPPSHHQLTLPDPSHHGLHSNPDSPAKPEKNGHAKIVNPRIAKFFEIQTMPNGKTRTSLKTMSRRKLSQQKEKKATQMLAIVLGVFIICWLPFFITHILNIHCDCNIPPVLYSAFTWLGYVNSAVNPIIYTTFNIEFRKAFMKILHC
Method: High affinity for the dopamine D-2 receptor was established by the standard experimental test procedure of Fields, et al., Brain Res., 136, 578 (1977) and Yamamura et al., eds., Neurotransmitter Receptor Binding, Raven Press, N.Y. (1978) wherein homogenized limbic brain tissue is incubated with ^3 H-spiroperidol and various concentrations of test compound, filtered and washed and shaken with Hydrofluor scintillation cocktail (National Diagnostics) and counted in a Packard 460 CD scintillation counter.

[4] = tested on: patients with mild to moderate Alzheimer's Disease; conditions: cited from earlier work; for memory improvement in patients (in words): mild to moderate Alzheimer's Disease
[5] = tested on: 5-HT1A serotonin receptor; assay: Serotonin 5-HT1A receptor binding, displacement of [3H]8-OHDPAT
Excerpt: High affinity for the serotonin 5-HT1A receptor was established by testing the claimed compound's ability to displace ^3 H!8-OHDPAT (dipropylaminotetralin) from the 5-HT1A serotonin receptor following the procedure of Hall et al., J. Neurochem. 44, 1685 (1985). […] The anxiolytic activity of buspirone is believed to be, at least partially, due to its 5-HT1A receptor affinity (Vander Maclen et al., Eur. J. Pharmacol. 1986, 129 (1-2) 133-130).

[6] = in vivo; cited from earlier work
[7] = tested on: 5-HT1A serotonin receptor; conditions: standard for anxiolytic activity; cited from earlier work

SMILES: O=C(Cc1csc(NC(=O)c2ccc(F)cc2)n1)NCCCCN1CC2CCC(CC2)C1 [Example 12, N-4-(3-Azabicyclo 3.2.2!non-3-yl)butyl-2-(4-fluorobenzoyl)amino!-4-thiazoleacetamide]
inhibition at 1 µM (M1 receptor (rat cortex)): 57%

SMILES: CC(C)(C)c1cc(C(=O)Nc2nc(C(=O)NCCCN3CC4CCC(CC4)C3)cs2)cc(C(C)(C)C)c1O [Example 5, N-3-(3-Azabicyclo 3.2.2!non-3-yl)propyl-2-3.5-bis(1.1-dimethylethyl)-4-hydroxybenzoyl!amino!-4-thiazolecarboxamide]
inhibition at 1 µM (M1 receptor (rat cortex)): 78%

SMILES: CC(C)(C)c1cc(C(=O)Nc2nc(C(=O)NCCN3CC4CCC(CC4)C3)cs2)cc(C(C)(C)C)c1O [Example 3]
inhibition at 1 µM (M1 receptor (rat cortex)): 70.5%

SMILES: CC(C)(C)c1cc(C(=O)Nc2nc(C(=O)NC3CN4CCC3CC4)cs2)cc(C(C)(C)C)c1O (stereo not drawn) [Example 7]
inhibition at 1 µM (M1 receptor (rat cortex)): 104%

SMILES: CN(C)CCOC(=O)c1csc(NC(=O)c2cc(C(C)(C)C)c(O)c(C(C)(C)C)c2)n1 [Example 1, 2-3.5.-Bis(1.1-dimethylethyl)-4-hydroxybenzoyl!amino!-4-thiazolecarboxylic acid 2-(dimethylamino)ethyl ester]
minimal effective dose [1]: 3 mg/kg
pIC50 (M1 receptor (rat cortex); rat cortex, [3H]pirenzepine, read-out: M1 3H PZ binding in rat cortex, IC50): 7.27
minimal effective dose [2]: 3 mg/kg
pIC50 [3]: 5.47

inhibition at 1 µM (dopamine D-2 receptor): 34%
SMILES: O=C(Cc1csc(NC(=O)c2ccc(F)cc2)n1)OCCN1CCN(c2ncccn2)CC1 [Example 16, 2-(4-Fluorobenzoyl)amino!-4-thiazoleacetic acid 2-4-(2-pyrimidinyl)-1-piperazinyl!ethyl ester]

inhibition at 1 µM (dopamine D-2 receptor): 51%
SMILES: COc1ccccc1N1CCN(CCOC(=O)Cc2csc(NC(=O)c3cc(C(C)(C)C)c(O)c(C(C)(C)C)c3)n2)CC1 [Example 15]

SMILES: O=C(Nc1nc(C(=O)NCCCCN2CC3CCC(CC3)C2)cs1)c1ccc(OCc2ccccc2)cc1 [Example 9]
inhibition at 1 µM (M1 receptor (rat cortex)): 62%

SMILES: O=C(Nc1nc(C(=O)NCCCN2CC3CCC(CC3)C2)cs1)c1ccc(O)cc1 [Example 10, N-3-(3- Azabicyclo 3.2.2!non-3-yl)propyl-2-4-hydroxybenzoyl!amino-4-thiazolecarboxamide]
inhibition at 1 µM (M1 receptor (rat cortex)): 58.7%

SMILES: O=C(Nc1nc(C(=O)NC2CN3CCC2CC3)cs1)c1ccc(OCc2ccccc2)cc1 (stereo not drawn) [Example 8]
inhibition at 1 µM (M1 receptor (rat cortex)): 85.8%

SMILES: CC(C)(C)c1cc(C(=O)Nc2nc(C(=O)OCCN3CC4CCC(CC4)C3)cs2)cc(C(C)(C)C)c1O [Example 4, 2-3.5-Bis(1.1-dimethylethyl)-4-hydroxybenzoyl!amino !-4-thiazolecarboxylic acid 2-(3-azabicyclo 3.2.2.!non-3-yl)ethyl ester]
inhibition at 1 µM (M1 receptor (rat cortex)): 90.6%

SMILES: Nc1c2c(nc3ccccc13)CCCC2 [tacrine]
adverse side effects (in words) ([4]; especially at the higher doses where it is most effective): adverse side effects
memory improvement in patients (in words) [4]: improvement in memory

5-HT1A Binding (% Inhibition at 1 μM) [5]: 100%
inhibition at 1 µM (dopamine D-2 receptor): 81%
SMILES: COc1ccccc1N1CCN(CCCOC(=O)Cc2csc(NC(=O)c3ccc(F)cc3)n2)CC1 [Example 13, 2-(4-Fluorobenzoyl)amino!-4-thiazoleacetic acid 3-4-(2-methoxyphenyl)-1-piperazinyl!propyl ester]

SMILES: O=C(Nc1nc(C(=O)NCCCCN2CC3CCC(CC3)C2)cs1)c1ccc(O)cc1 [Example 11, N-4-(3-Azabicyclo 3.2.2!non-3-yl)butyl-2-4-hydroxybenzoyl!amino!-4-thiazolecarboxamide]
inhibition at 1 µM (M1 receptor (rat cortex)): 63.9%

inhibition at 1 µM (M1 receptor (rat cortex); 1 μM, rat cortex, [3H]pirenzepine): 98.6%
SMILES: CN(C)CCNC(=O)c1csc(NC(=O)c2cc(C(C)(C)C)c(O)c(C(C)(C)C)c2)n1 [Example 2, 2-3,5,-Bis(1.1-dimethylethyl)-4-hydroxybenzoyl!amino!-N-2-(dimethylamino)ethyl!-4-thiazolecarboxamide]

5-HT1A Binding (% Inhibition at 1 μM) [5]: 89%
inhibition at 1 µM (dopamine D-2 receptor): 91%
SMILES: COc1ccccc1N1CCN(CCCOC(=O)Cc2csc(NC(=O)c3cc(C(C)(C)C)c(O)c(C(C)(C)C)c3)n2)CC1 [Example 14, 2-3,5-Bis(1,1-dimethylethyl)-4-hydroxyphenyl!carbonyl!amino!-4-thiazoleacetic acid 3-4-(2-methoxyphenyl)-1-piperazinyl!propyl ester]

SMILES: COC(=O)C1=CCCN(C)C1 [arecoline]
memory improvement in patients (in words) [4]: memory improvement
half-life (in words) [6]: short half-life

SMILES: CC(C)(C)c1cc(C(=O)Nc2nc(C(=O)NCCCCN3CC4CCC(CC4)C3)cs2)cc(C(C)(C)C)c1O [Example 6, N-4-(3-Azabicyclo 3.2.21non-3-yl)butyl!-2-3,5-bis(1,1-dimethylethyl)-4-hydroxybenzoyl!amino!-4-thiazolecarboxamide]
inhibition at 1 µM (M1 receptor (rat cortex)): 86%

SMILES: O=C1CC2(CCCC2)CC(=O)N1CCCCN1CCN(c2ncccn2)CC1 [buspirone]
5-HT1A receptor affinity (in words) [7]: potent affinity

inhibition at 0.1 µM (dopamine D-2 receptor; 0.1 μM): 5%
SMILES: CC(C)(C)c1cc(C(=O)Nc2nc(CC(=O)NCCN3CCN(c4ncccn4)CC3)cs2)cc(C(C)(C)C)c1O [Example 17]
